Measurements taken from patent US11213560B2, “Method of promoting wound healing with sinetirucallol” (NATIONAL DONG HWA UNIVERSITY, priority 2015, dated 2022).

Key:
[1] = test system: LPS-induced RAW 264.7 cells; assay: Real-time PCR of inflammatory cytokine transcription in LPS-induced RAW 264.7 cells; type: cell-based, murine; settings: LPS 1 μg/mL; 5 μM SI (tested 0.1, 1, 5, 10 μM)
Description: (§1) The RAW264.7 murine macrophage cell line was purchased from the Bioresource Collection and Research Center (BCRC, Taiwan). The cells were incubated at 37° C. in 5% CO2 in Dulbecco's modified Eagle's medium (DMEM; Gibco Inc., NY, USA) supplemented with 100 U/mL penicillin, 100 μg/mL sodium pyruvate and 10% fetal bovine serum (FBS; Gibco Inc.).
The cells were also treated with 0.01% DMSO as a vehicle control. The cells were seeded into 12-well plates at a density of 6×10^5 cells/well in 24 h then incubated with 0.1% BSA with serum-free medium 3 h, treated with different concentrations of Spiranthes sinensis extract or SI then incubated in the presence of LPS (1 μg/mL) for 4 h.
Total RNA was prepared from freshly harvested RAW 264.7 cells and was isolated using Trizol extraction. RNA samples were frozen at −80° C. until analyzed. cDNA was then made using an M-MLV RT kit (Invitrogen, Carlsbad, Calif.) according to the manufacturer's protocol. The expression of selected cytokine and related genes in mouse tissue and in RAW264.7 cells exposed to the present Spiranthes sinensis extract was determined by the SensiFAST SYBR No-ROX Kit (BIOLINE, London, UK), as described previously. PCR cycling conditions for TNF-Alpha included a 95° C. heating step for 2 min at the beginning of every run. […] In order to quantify expression represented by each of the PCR products, an internal reference by β-actin.

RAW 264.7 cells = assay: MTT cell viability of RAW264.7 cells (Example 2); type: cell-based, murine; settings: extract 5, 20, 50, 100 μg/mL or sinetirucallol 0.1, 1, 5, 10 μM for 24 h
Description: as §1
In order to examine the bio-compatibility of the extract of the present disclosed composition, a MTT assay (3-(4,5-dimethylthiazol-2-yl)-2,5-diphenyltetrazolium bromide (MTT, Invitrogen), a colorimetric based assay) was performed.
Briefly, 8×10^3 of cells per well were seeded in 96-well plates and were incubated in 5% CO2 at 37° C. for overnight. Cells were treated different concentrations (5, 20, 50, and 100 μg/mL) of Spiranthes sinensis extract for 24 h, after incubation 20 μL (5 mg/mL) of MTT solution was added per well and further incubated for 4 h. The media was removed, and formazan was solubilized by adding 100 μl/well of DMSO (Sigma-Aldrich) and OD was measured at 570 nm using a microplate reader (ELISA reader, Thermo Labsystems). Percentage of viable cells was estimated by comparing with untreated control cells. The average absorbance value of the control cells was taken as 100% viability.

NFκB = assay: Western blot of NFκB in LPS-induced RAW264.7 cells; type: cell-based, murine; settings: LPS 1 μg/mL, 12 h; extract 5-100 μg/mL or SI 0.1-10 μM; dose-dependent manner
Description: as §1
(§2) The cells were also treated with 0.01% DMSO as a vehicle control. The cells were seeded into 12-well plates at a density of 6×10^5 cells/well in 24 h then incubated with 0.1% BSA with serum-free medium 3 h, treated with […]
(§3) The concentrations of proteins from whole-cell lysates were determined by Bradford assay. Equal amounts of protein were separated by SDS-PAGE and transferred onto nitrocellulose membranes. […] With the use of horseradish peroxidase-conjugated secondary anti-rabbit or anti-mouse antibody, bound antibodies were detected by enhanced chemiluminescence. The signals were monitored using Western Lightning™ Plus-ECL (Perkin Elmer Life Sciences) and the PVDF membrane was exposed to Luminescent image analyzer LAS-3000 (Fujifilm, Minato, Tokyo, Japan). Acquired data were analyzed and compared the difference among treatments.

[2] = test system: LPS-induced RAW264.7 cells; assay: Nitrite quantification of NO production in LPS-induced RAW264.7 cells; type: cell-based, murine; settings: LPS 1 μg/mL 12 h; extract 5, 20, 50, 100 μg/mL or SI 0.1, 1, 5, 10 μM; dose-dependent manner
Description: as §1, §2
NO production from activated RAW 264.7 cells was determined by measuring the amount of nitrite, a stable oxidation product of NO. An aliquot of the conditioned medium was mixed with an equal volume of 1% sulfanilamide in water and 0.1% N-1-naphthylethylenediamine dihydrochloride in 5% phosphoric acid. The absorbance was determined at 550 nm. Sodium nitrite, diluted in culture media at concentrations of 10-100 μM, was used to generate a standard curve.

[3] = test system: CFA-induced inflammation mice; assay: CFA-induced paw inflammation in mice, swelling index; type: in vivo, C57BL/6 mice
COX-2 = assay: Western blot of COX-2 in LPS-induced RAW264.7 cells; type: cell-based, murine; settings: LPS 1 μg/mL, 12 h; extract 5-100 μg/mL or SI 0.1-10 μM; dose-dependent manner
Description: as §1, §2, §3

p-ERK = assay: Western blot of phosphorylated ERK in LPS-induced RAW264.7 cells; type: cell-based, murine; settings: LPS 1 μg/mL, 12 h; extract 5-100 μg/mL or SI 0.1-10 μM; dose-dependent manner
Description: as §1, §2, §3

C[C@H](CC[C@@H]1CC1(C)C)[C@H]1CC[C@@]2(C)C3CCC4C(C)(C)[C@H](O)CC[C@@]4(C)C3=CC[C@]12C (stereo partly drawn) [sinetirucallol]
inhibition of inflammatory cytokine transcription [1]: better inhibition
Cell viability (MTT assay) (RAW 264.7 cells): not affected
LPS-induced expression of NFκB (NFκB): diminished
NO production (nitrite) [2]: inhibitory effect
anti-inflammatory effect, low versus high dose ([3]; 0.44 μg/kg SI compared with 4.4 μg/kg SI): better effect than that of 4.4 μg/kg SI
foot swelling recovery compared with 0.3 mg/kg triamcinolone ([3]; SI group (4.4, 2.2, 0.44 μg/kg i.p.)): less foot swelling recovery than that of 0.3 mg/kg triamcinolone
anti-inflammatory effect (swelling index of foot) ([3]; intraperitoneal injection 3 times Day 0 to Day 2, extract 0.5, 0.3, 0.06 mg/kg b.w, SI 4.4, 2.2, 0.44 μg/kg, compared with CFA group): much better than that of Spiranthes sinensis extract
LPS-induced expression of COX-2 (COX-2): diminished
LPS-induced phosphorylation of ERK (p-ERK): diminished
